Reference: patent US20050033050A1, “Phthalazinones and the use thereof in order to combat undesirable microorganisms” (priority 2001, published 2005)
Like-named read-outs stand apart in the source and are kept apart here.

Tests used:
[1] = logP by HPLC (EEC directive 79/831 Annex V.A8, gradient method); assay type: physicochemical; details: for logP*: compounds of formula (IV), Table 2; for log P*: Table 1
[2] = tested on: Erysiphe graminis fsp. tritici; experiment: Erysiphe test (wheat)/protective; assay type: in vivo; details: protective, application rate 500 g/ha, evaluation 7 days after inoculation, 100% = no infection
Experimental: (§1) To produce a suitable preparation of active compound, I part by weight of active compound is mixed with the stated amounts of solvent and emulsifier, and the concentrate is diluted with water to the desired concentration.
To test for protective activity, young plants are sprayed with the preparation of active compound at the stated application rate.
After the spray coating has dried on, the plants are dusted with spores of Erysiphe graminis fsp. tritici.
(§2) The plants are placed in a greenhouse at a temperature of about 20° C. and a relative atmospheric humidity of about 80% to promote the development of mildew pustules.
(§3) Evaluation is carried out 7 days after the inoculation. 0% means an efficacy which corresponds to that of the control, whereas an efficacy of 100% means that no infection is observed.

[3] = tested on: Erysiphe graminis f.sp. hordei; experiment: Erysiphe test (cucumber)/protective; assay type: in vivo; details: protective, application rate 500 g/ha, evaluation 7 days after inoculation; 100% = no infection
Experimental: as §1, with “1” for “I”, “concentration. To test for protective activity, young plants are sprayed with the preparation of active” for “concentration.”
compound at the stated application rate.
After the spray coating has dried on, the plants are dusted with spores of Erysiphe graminis f.sp. hordei.
as §2, §3

[4] = gradient method, acetonitrile/0.1% aqueous phosphoric acid
[5] = gradient method, acetonitrile/0.1% aqueous phosphoric acid, compounds of formula (I)
[6] = gradient method, acetonitrile/0.1% aqueous phosphoric acid, compounds of formula (I), Table 1, read-out: log P*
[7] = preparation example, read-out: HPLC: logP

Row | SMILES | logP* [1, 4] | log P* [1, 5] | further results
1 | CC(C)COc1n[nH]c(=O)c2cc(Cl)c(Cl)cc12 [(IV-6)] | 3.64 |  | 
2 | CCC(C)Oc1n[nH]c(=O)c2ccc(Br)cc12 (stereo not shown) [(IV-4)] | 3.12 |  | 
3 | CCC(C)Oc1n[nH]c(=O)c2cc(Cl)c(Cl)cc12 (stereo not shown) [(IV-5)] | 3.62 |  | 
4 | CCCOc1nn(CCC)c(=O)c2cc(Br)ccc12 [Example 1, 7-bromo-4-propoxy-2-propyl-1(2H)-phthalazinone] |  |  | chromatographic logP [1, 6]: 4.76; chromatographic logP [1, 7]: 4.76
5 | CCCOc1n[nH]c(=O)c2cc(Br)ccc12 [(IV-2)] | 2.66 |  | 
6 | CCCOc1nn(CCC(C)C)c(=O)c2ccc(Br)cc12 [Example 2, 6-bromo-2-isopentyl-4-propoxy-1 (2H)-phthalazinone] |  |  | chromatographic logP [1, 6]: 5.91; chromatographic logP [1, 7]: 5.91
7 | CCCOc1n[nH]c(=O)c2ccc(Br)cc12 [(IV-3)] | 2.71 |  | 
8 | CCC(C)Oc1n[nH]c(=O)c2cc(Br)ccc12 (stereo not shown) [Example (IV-1), 7-bromo-4-sec-butoxy-1 (2H)-phthalazinone] |  |  | chromatographic logP [1, 7]: 3.01

Continued, in another order:

Row | logP* [1, 4] | log P* [1, 5] | SMILES | further results
9 |  | 5.51 | CCCOc1nn(CCC)c(=O)c2cc(Cl)c(Cl)cc12 [Example 10] | efficacy [2]: 100%
10 |  | 3.62 | CCC(C)Oc1nn(C(C)CC)c(=O)c2cc(Cl)c(Cl)cc12 (stereo not shown) [Example 12] | 
11 |  | 4.8 | CCCOc1nn(CCC)c(=O)c2ccc(Br)cc12 [Example 4] | efficacy [2]: 100%
12 |  | 6.46 | CC(C)COc1nn(CC(C)C)c(=O)c2cc(Cl)c(Cl)cc12 [Example 13] | 
13 |  | 5.52 | CCC(C)Oc1nn(C(C)CC)c(=O)c2cc(Br)ccc12 (stereo not shown) [Example 9] | 
14 |  | 4.82 | CCCOc1cc2c(OCCC)nn(CCC)c(=O)c2cc1F [Example 15] | 
15 |  | 5.26 | CCCOc1cc2c(=O)n(CCC)nc(OCCC)c2cc1F [Example 16] | 
16 |  | 6.71 | CCCCOc1nn(CCCC)c(=O)c2cc(Cl)c(Cl)cc12 [Example 11] | efficacy [2]: 100%; efficacy [3]: 100%
